We go through 7 compounds from patent publication USRE47739E1, “2-(pyridin-2-ylamino)-pyrido[2,3-D]pyrimidin-7-ones” (Warner-Lambert Company LLC, priority 2002, dated 2019).

One series deals with Cdk4/Cyclin D (Homo sapiens, UniProt P11802). As to the kind of experiment: Assay for Inhibition of Cdk4/Cyclin D. The format is biochemical. The note with it: 25 μM ATP, retinoblastoma protein substrate, 25° C., 15 minutes. Here is the method:
(§1) The assays were carried out as described below.
Assay for Inhibition of Cdk4/Cyclin D
The Cdk4 enzyme assay for IC50 determination and kinetic evaluation is performed as follows. 96-well filter plates (Millipore MADVN6550) are used. […] Buffer A containing excess EDTA was used to determine the level of background ^32P in the absence of enzyme activity. All components except the ATP are added to the wells, and the plate is placed on a plate mixer for 2 minutes. The reaction is started by adding [^32P]ATP, and the plate is incubated at 25° C. for 15 minutes. The reaction is terminated by addition of 0.1 mL 20% trichloroacetic acid (TCA). The plate is kept at 4° C. for at least 1 hour to allow the substrate to precipitate. The wells are then washed five times with 0.2 mL 10% TCA, and ^32P incorporation is determined with a beta plate counter (Wallac Inc., Gaithersburg, Md.).

Series [1] addresses FGF receptor (FGFr) tyrosine kinase (Homo sapiens, UniProt P11362). As to the kind of experiment: Assay for Inhibition of FGFr. Type of series: biochemical. The note with it: 50 μM ATP, Poly (4:1) glutamate-tyrosine substrate, 25° C. The procedure: as §1
Assay for Inhibition of FGFr
For FGF receptor (FGFr) tyrosine kinase assays 96-well plates (100 μL/incubation/well), and conditions are optimized to measure the incorporation of ^32P from [γ^32P]ATP into a glutamate-tyrosine co-polymer substrate. Briefly, to each well is added 82.5 μL incubation buffer B (25 mM Hepes (pH 7.0), 150 mM NaCl, 0.1% Triton X-100, 0.2 mM PMSF, 0.2 mM Na3VO4, 10 mM MnCl2) and 750 μg/mL Poly (4:1) glutamate-tyrosine followed by 2.5 μL of the test compound in buffer B and 5 μL of a 7.5 μg/μL FGFr solution to initiate the reaction. Following a 10-minute incubation at 25° C., […] [γ^32P]ATP (0.4 μCi plus 50 μM ATP) is added to each well, and samples are incubated for an additional 10 minutes at 25° C. The reaction is terminated by the addition of 100 μL 30% trichloroacetic acid (TCA) containing 20 mM sodium pyrophosphate and precipitation of material onto glass fiber mats (Wallac). […] Nonspecific activity is defined as radioactivity retained on the filters following incubation of samples with buffer alone (no enzyme). Specific enzymatic activity (enzyme plus buffer) is defined as total activity minus nonspecific activity.

The next series concerns the target Cdk2/Cyclin A (Homo sapiens, UniProt P24941). As to the kind of experiment: Assay for Inhibition of Cdk2/Cyclin A. The format is biochemical. The note with it: 12 mM ATP (so in the source), retinoblastoma protein substrate, 25° C., 15 minutes. The procedure: as §1
Assay for Inhibition of Cdk2/Cyclin A
Cdk2 enzyme assays for IC50 determinations and kinetic evaluation are performed as follows. 96-well filter plates (Millipore MADVN6550) are used. […] All components except the ATP are added to the wells, and the plate is placed on a plate mixer for 2 minutes. The reaction is initiated by addition of [^32P]ATP, and the plate is incubated at 25° C. for 15 minutes. The reaction is terminated by addition of 0.1 mL 20% TCA. The plate is kept at 4° C. for at least 1 hour to allow the substrate to precipitate. The wells are then washed five times with 0.2 mL 10% TCA, and ^32P incorporation is determined with a beta plate counter (Wallac Inc., Gaithersburg, Md.).

The subject of the next series is neointima formation. The note with it: rats; cited from earlier work.

Chain of FGF receptor (FGFr) tyrosine kinase (P11362 22-822): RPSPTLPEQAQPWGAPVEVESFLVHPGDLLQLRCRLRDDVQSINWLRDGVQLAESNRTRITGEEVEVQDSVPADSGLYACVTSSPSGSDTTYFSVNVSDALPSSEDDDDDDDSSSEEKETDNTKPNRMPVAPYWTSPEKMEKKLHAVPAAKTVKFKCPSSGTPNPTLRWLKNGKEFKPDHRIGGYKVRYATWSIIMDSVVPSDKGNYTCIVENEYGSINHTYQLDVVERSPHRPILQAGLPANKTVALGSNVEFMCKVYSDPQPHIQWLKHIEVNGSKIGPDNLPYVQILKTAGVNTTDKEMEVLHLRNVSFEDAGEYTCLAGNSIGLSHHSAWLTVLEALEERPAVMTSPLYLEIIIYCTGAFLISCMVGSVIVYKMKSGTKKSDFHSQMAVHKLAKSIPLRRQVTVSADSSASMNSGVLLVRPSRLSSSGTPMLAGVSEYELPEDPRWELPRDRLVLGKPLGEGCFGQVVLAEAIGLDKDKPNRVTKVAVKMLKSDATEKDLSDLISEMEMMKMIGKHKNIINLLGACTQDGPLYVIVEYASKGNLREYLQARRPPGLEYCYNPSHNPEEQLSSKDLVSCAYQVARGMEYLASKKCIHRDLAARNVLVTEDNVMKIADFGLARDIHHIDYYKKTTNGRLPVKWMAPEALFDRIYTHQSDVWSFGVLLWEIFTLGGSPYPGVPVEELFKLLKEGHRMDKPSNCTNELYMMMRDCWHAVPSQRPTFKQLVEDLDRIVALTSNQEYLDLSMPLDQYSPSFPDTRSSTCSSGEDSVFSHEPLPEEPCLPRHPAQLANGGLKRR
Chain of Cdk4/Cyclin D (P11802 whole entry, species assumed): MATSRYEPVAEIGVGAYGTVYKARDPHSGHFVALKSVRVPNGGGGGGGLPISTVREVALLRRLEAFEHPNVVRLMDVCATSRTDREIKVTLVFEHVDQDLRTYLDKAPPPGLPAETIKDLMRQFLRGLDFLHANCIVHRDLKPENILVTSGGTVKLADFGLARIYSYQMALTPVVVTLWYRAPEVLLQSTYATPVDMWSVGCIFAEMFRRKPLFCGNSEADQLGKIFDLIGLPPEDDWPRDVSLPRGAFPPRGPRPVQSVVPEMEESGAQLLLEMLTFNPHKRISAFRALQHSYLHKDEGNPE
Chain of Cdk4/Cyclin D (P24385 whole entry partner, species assumed): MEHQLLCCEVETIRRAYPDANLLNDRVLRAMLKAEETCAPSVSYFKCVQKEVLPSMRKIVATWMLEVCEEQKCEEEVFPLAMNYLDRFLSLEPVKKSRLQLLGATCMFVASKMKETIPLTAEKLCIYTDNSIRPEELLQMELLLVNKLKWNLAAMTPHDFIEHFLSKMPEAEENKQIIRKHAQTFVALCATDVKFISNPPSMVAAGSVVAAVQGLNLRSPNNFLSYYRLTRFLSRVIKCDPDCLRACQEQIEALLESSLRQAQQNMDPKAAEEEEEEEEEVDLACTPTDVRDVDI

The term IC50 denotes the point on the concentration scale where inhibition reaches its midpoint. Low readings indicate greater potency, high ones weaker potency. The term melting point denotes the temperature, or range, at which the solid turns liquid. In turn, `COCCN(CCOC)c1ccc(Nc2ncc3c(C)c(C(C)=O)c(=O)n(C4CCCC4)c3n2)nc1` [Example 55, 6-Acetyl-2-{5-[bis-(2-methoxy-ethyl)-amino]-pyridin-2-ylamino}-8-cyclopentyl-5-methyl-8H-pyrido[2,3-d]pyrimidin-7-one] came in with a melting point of 138 °C. Besides, half-maximal inhibition against Cdk4/Cyclin D (IC50) was put at 0.024 µM. The IC50 in series [1] was over 5 µM. In addition, the IC50 at Cdk2/Cyclin A was over 5 µM.

In turn, `Nc1cccc(Nc2ncc3cc(Br)c(=O)n(C4CCCC4)c3n2)n1` [Example 65, 6-Bromo-8-cyclopentyl-2-(pyridin-2,6-yldiamino)-8H-pyrido[2,3-d]pyrimidin-7-one] returned a melting point of over 300 °C. The compound also had a 50% inhibitory concentration (IC50) at Cdk4/Cyclin D of 0.43 µM. The compound also came in with an IC50 at Cdk2/Cyclin A of 3.3 µM.

Consider `COCCN(CCOC)c1ccc(Nc2ncc3c(C)c(Br)c(=O)n(C4CCCC4)c3n2)nc1` [Example 54, 2-{5-[Bis-(2-methoxy-ethyl)-amino]-pyridin-2-ylamino}-6-bromo-8-cyclopentyl-5-methyl-8H-pyrido[2,3-d]pyrimidin-7-one], for which the melting point lay in the range of 94 to 95 °C. The compound also showed an IC50 at Cdk4/Cyclin D of 1.1 µM. In addition, the IC50 in series [1] was over 5 µM.

In turn, `Cc1c(Br)c(=O)n(C2CCCC2)c2nc(Nc3ccccn3)ncc12` [Example 37, 6-bromo-8-cyclopentyl-5-methyl-2-(pyridin-2-ylamino)-8H-pyrido[2,3-d]pyrimidin-7-one] returned a melting point of 267 to 268 °C. This compound came in with an IC50 against Cdk4/Cyclin D of over 5 µM. This compound yielded an IC50 in series [1] of over 5 µM.

Take `Cc1c(I)c(=O)n(C2CCCC2)c2nc(Nc3ccc(N4CCNCC4)cn3)ncc12` [Example 50, 8-Cyclopentyl-6-iodo-5-methyl-2-(5-piperazin-1-yl-pyridin-2-ylamino)-8H-pyrido[2,3-d]pyrimidin-7-one]: the melting point was over 240 °C. For the same compound, the IC50 at Cdk4/Cyclin D was determined as 0.145 µM. For the same compound, the IC50 in series [1] is over 5 µM. This compound also displayed an IC50 against Cdk2/Cyclin A of over 5 µM.

On to `COc1ccc(CNc2nc(N(CCO)CCO)nc3c2ncn3C(C)C)cc1` [CVT-313], for which the “inhibition of neointima formation” value in the series with neointima formation is “greater than 80%”.

Consider `Cc1c(Br)c(=O)n(C2CCCC2)c2nc(Nc3ccc(N4CCN(C)CC4)cn3)ncc12` [Example 70, 6-Bromo-8-cyclopentyl-5-methyl-2-[5-(4-methyl-piperazin-1-yl)-pyridin-2-ylamino]-8H-pyrido[2,3-d]pyrimidin-7-one], for which the melting point was 278 to 280 °C (dec.). Half-maximal inhibition against Cdk4/Cyclin D (IC50) required 0.135 µM. Moreover, the IC50 in series [1] was over 5 µM.
